Assay results as given in ChEMBL document CHEMBL1151651, “Antimicrobially active alkaloids from Tabernaemontana chippii” (1985).
Converted amounts (≈) assume the structure as drawn.

Key:
Format in all cases: functional
Bacillus subtilis [1] = assay: Antimicrobial activity against Bacillus subtilis using pH 4.0 buffer as solvent by agar diffusion test
Staphylococcus aureus [2] = assay: Antimicrobial activity against Staphylococcus aureus using pH 4.0 buffer as solvent by agar diffusion test
Escherichia coli [3] = assay: Antimicrobial activity against Escherichia coli using pH 4.0 buffer as solvent by agar diffusion test
Pseudomonas aeruginosa [4] = assay: Antimicrobial activity against Pseudomonas aeruginosa using pH 4.0 buffer as solvent by agar diffusion test
Bacillus subtilis [5] = assay: Antimicrobial activity against Bacillus subtilis using distilled water as solvent by agar diffusion test
Pseudomonas aeruginosa [6] = assay: Antimicrobial activity against Pseudomonas aeruginosa using distilled water as solvent by agar diffusion test
Escherichia coli [7] = assay: Antimicrobial activity against Escherichia coli using distilled water as solvent by agar diffusion test
Staphylococcus aureus [8] = assay: Antimicrobial activity against Staphylococcus aureus using distilled water as solvent by agar diffusion test

| MIC (Bacillus subtilis [1]) | MIC (Staphylococcus aureus [2]) | MIC (Escherichia coli [3]) | MIC (Pseudomonas aeruginosa [4]) | Structure (SMILES) | MIC (Bacillus subtilis [5]) | MIC (Pseudomonas aeruginosa [6]) | MIC (Escherichia coli [7]) | MIC (Staphylococcus aureus [8]) |
| --- | --- | --- | --- | --- | --- | --- | --- | --- |
| 14 µg/mL (≈ 19.4 µM) | 45 µg/mL (≈ 62.4 µM) | 750 µg/mL (≈ 1040 µM) | 150 µg/mL (≈ 208 µM) | C=CC1CN(C)[C@H]2Cc3c([nH]c4ccccc34)[C@H](c3c(OC)ccc4c5c([nH]c34)[C@]3(C(=O)OC)C[C@@H]4C[C@H](CC)[C@@H]3N(CC5)C4O)C[C@H]1C2C(=O)OC (some centres undefined) |  |  |  |  |
| 8 µg/mL (≈ 11.1 µM) | 65 µg/mL (≈ 90.2 µM) | 170 µg/mL (≈ 236 µM) | 65 µg/mL (≈ 90.2 µM) | C=CC1CN(C)[C@H]2Cc3c([nH]c4ccccc34)[C@H](c3cc4c5c([nH]c4cc3OC)[C@]3(C(=O)OC)C[C@@H]4C[C@H](CC)[C@@H]3N(CC5)C4O)C[C@H]1C2C(=O)OC (some centres undefined) |  |  |  |  |
| 4 µg/mL (≈ 5.67 µM) | 50 µg/mL (≈ 70.9 µM) | 70 µg/mL (≈ 99.3 µM) | 400 µg/mL (≈ 567 µM) | C=CC1CN(C)[C@H]2Cc3c([nH]c4ccccc34)[C@H](c3c(OC)ccc4c5c([nH]c34)[C@]3(C(=O)OC)C[C@@H]4C[C@H](CC)[C@@H]3N(CC5)C4)C[C@H]1C2C(=O)OC (some centres undefined) [CONODURINE] |  |  |  |  |
| 15 µg/mL (≈ 21.3 µM) | 35 µg/mL (≈ 49.7 µM) | 110 µg/mL (≈ 156 µM) | 400 µg/mL (≈ 567 µM) | C=CC1CN(C)[C@H]2Cc3c([nH]c4ccccc34)[C@H](c3cc4c5c([nH]c4cc3OC)[C@]3(C(=O)OC)C[C@@H]4C[C@H](CC)[C@@H]3N(CC5)C4)C[C@H]1C2C(=O)OC (some centres undefined) [CONODURAMINE] |  |  |  |  |

Further lines, the molecule ahead of its results:

| Structure (SMILES) | MIC (Bacillus subtilis [1]) | MIC (Staphylococcus aureus [2]) | MIC (Escherichia coli [3]) | MIC (Pseudomonas aeruginosa [4]) | MIC (Bacillus subtilis [5]) | MIC (Pseudomonas aeruginosa [6]) | MIC (Escherichia coli [7]) | MIC (Staphylococcus aureus [8]) |
| --- | --- | --- | --- | --- | --- | --- | --- | --- |
| CN[C@@H]1[C@H](O[C@H]2[C@H](O[C@H]3[C@H](O)[C@@H](O)[C@H](N=C(N)N)[C@@H](O)[C@@H]3N=C(N)N)O[C@@H](C)[C@]2(O)C=O)O[C@@H](CO)[C@H](O)[C@H]1O [STREPTOMYCIN] | 1 µg/mL (≈ 1.72 µM) | 5 µg/mL (≈ 8.6 µM) | 80 µg/mL (≈ 138 µM) | 7 µg/mL (≈ 12 µM) | 0.2 µg/mL (≈ 0.344 µM) | 12 µg/mL (≈ 20.6 µM) | 0.5 µg/mL (≈ 0.86 µM) | 1 µg/mL (≈ 1.72 µM) |
| CC[C@H]1C[C@H]2C[C@@]3(C(=O)OC)c4[nH]c5cc(OC)c(OC)cc5c4CCN(C2O)[C@@H]13 (some centres undefined) | 60 µg/mL (≈ 145 µM) | 140 µg/mL (≈ 338 µM) | > 1000 µg/mL | > 1000 µg/mL |  |  |  |  |
| CC[C@H]1C[C@H]2C[C@@]3(C(=O)OC)c4[nH]c5cc(OC)ccc5c4CCN(C2O)[C@@H]13 (some centres undefined) | 50 µg/mL (≈ 130 µM) | 500 µg/mL (≈ 1300 µM) | 500 µg/mL (≈ 1300 µM) | 300 µg/mL (≈ 780 µM) |  |  |  |  |
| C=CC1CN(C)[C@@H]2Cc3c([nH]c4ccccc34)[C@@H](/C=C3\c4[nH]c5ccccc5c4CN4CC[C@H]3/C(=C\C)C4)C[C@@H]1C2C(=O)OC (some centres undefined) [VOBAPARICINE] | 50 µg/mL (≈ 83.2 µM) |  | 100 µg/mL (≈ 166 µM) |  |  |  |  |  |
